Measured values published in ChEMBL document CHEMBL3885861, “Open TG-GATES”.

Species on record: Rattus norvegicus
Assay: Open TG-GATES - Regimen: Daily Repeat
Assay type: toxicity, organism-based, Sprague-Dawley
Parameters: regimen Daily Repeat, gender Male, age 6 weeks
Conditions: in vivo, po, route gavage; for Bas / Eos / Fbg / Ht / Lym / MCHC / MCV / Mono / PT / Plat / RBC / Ret / WBC / Neu: tissue Blood; for KIDNEY_L / KIDNEY_R / KIDNEY_TOTAL: tissue Kidney; for ALT / AST / CRE / Ca / DBIL / GLC / IP / K / LDH / Na / PL / RALB / TBIL / TC / TG / TP / gamma-GTP / BUN / Cl: tissue Plasma
[1] = 0 mg/kg, 72 h, dose level Control, time 3 day
[2] = 0 mg/kg, […], dose level Control, time 7 day
[3] = 0 mg/kg, […], dose level Control, time 14 day
[4] = 0 mg/kg, […], dose level Control, time 28 day
[5] = 80 mg/kg, 72 h, dose level Low, time 3 day
[6] = 80 mg/kg, […], dose level Low, time 7 day
[7] = 80 mg/kg, […], dose level Low, time 14 day
[8] = 80 mg/kg, […], dose level Low, time 28 day

## COc1ccc([C@@H]2Sc3ccccc3N(CCN(C)C)C(=O)[C@@H]2OC(C)=O)cc1 [DILTIAZEM]
[1]
  TERMINAL_BW: 215.4 g
  Bas: 0.2%
  Eos: 1%
  Fbg: 262.2 mg/dL
  Ht: 41.3%
  Lym: 74.6%
  MCHC: 32.7%
  MCV: 67.4 fL
  Mono: 3.4%
  PT: 14.3 s
  Plat: 126.4 x10_4/uL
  RBC: 613.4 x10_4/ul
  Ret: 8.9%
  WBC: 101.8 x10_2/uL
  KIDNEY_L: 1 g
  KIDNEY_R: 1 g
  KIDNEY_TOTAL: 1.9 g
  ALT: 45.8 IU/L
  AST: 76.8 IU/L
  CRE: 0.2 mg/dL
  Ca: 11.2 mg/dL
  DBIL: 0.016 mg/dL
  GLC: 177.4 mg/dL
  IP: 7.6 mg/dL
  K: 4 meq/L
  LDH: 97 IU/L
  Na: 143.8 meq/L
  PL: 151.2 mg/dL
  RALB: 2.7 g/dL
  TBIL: 0.032 mg/dL
  TC: 79.6 mg/dL
  TG: 86 mg/dL
  TP: 5.5 g/dL
  gamma-GTP: 1.2 IU/L
[2]
  TERMINAL_BW: 250.6 g
  Bas: 0%
  Eos: 0.8%
  Fbg: 297.6 mg/dL
  Ht: 41.8%
  Lym: 77%
  MCHC: 33.1%
  MCV: 64.6 fL
  Mono: 2.8%
  Neu: 18.4%
  PT: 14.2 s
  Plat: 137.2 x10_4/uL
  RBC: 648 x10_4/ul
  Ret: 6.7%
  WBC: 91.7 x10_2/uL
  KIDNEY_L: 1.1 g
  KIDNEY_R: 1 g
  KIDNEY_TOTAL: 2.1 g
  ALT: 45.4 IU/L
  AST: 72.6 IU/L
  BUN: 14.8 mg/dL
  CRE: 0.2 mg/dL
  Ca: 11.1 mg/dL
  Cl: 106.4 meq/L
  DBIL: 0.014 mg/dL
  GLC: 187.8 mg/dL
  IP: 7.6 mg/dL
  K: 4.3 meq/L
  LDH: 84 IU/L
  Na: 143.8 meq/L
  PL: 162.4 mg/dL
  RALB: 2.8 g/dL
  TBIL: 0.018 mg/dL
  TC: 82.8 mg/dL
  TG: 112.6 mg/dL
  TP: 5.8 g/dL
  gamma-GTP: 1 IU/L
[3]
  TERMINAL_BW: 321.8 g
  Bas: 0.4%
  Eos: 0.6%
  Fbg: 290.8 mg/dL
  Ht: 44%
  Lym: 82.2%
  MCHC: 33.2%
  MCV: 62.3 fL
  Mono: 2.2%
  Neu: 14%
  PT: 14.1 s
  Plat: 141.2 x10_4/uL
  RBC: 706.2 x10_4/ul
  Ret: 5.2%
  KIDNEY_L: 1.3 g
  KIDNEY_R: 1.3 g
  KIDNEY_TOTAL: 2.6 g
  ALT: 39 IU/L
  AST: 65.6 IU/L
  BUN: 16 mg/dL
  CRE: 0.2 mg/dL
  Ca: 10.8 mg/dL
  Cl: 105.6 meq/L
  DBIL: 0.018 mg/dL
  GLC: 189 mg/dL
  IP: 6.9 mg/dL
  K: 4.1 meq/L
  LDH: 92.8 IU/L
  Na: 144 meq/L
  PL: 160.4 mg/dL
  RALB: 2.8 g/dL
  TBIL: 0.02 mg/dL
  TC: 71.2 mg/dL
  TG: 180.4 mg/dL
  TP: 5.8 g/dL
  gamma-GTP: 1 IU/L
[4]
  TERMINAL_BW: 411.3 g
  Bas: 0.4%
  Eos: 1%
  Fbg: 302.8 mg/dL
  Ht: 45.8%
  Lym: 77%
  MCHC: 34.1%
  MCV: 57.2 fL
  Mono: 2.4%
  Neu: 18.8%
  PT: 14 s
  Plat: 112.6 x10_4/uL
  RBC: 801.4 x10_4/ul
  Ret: 2.5%
  WBC: 99.4 x10_2/uL
  KIDNEY_L: 1.5 g
  KIDNEY_R: 1.5 g
  KIDNEY_TOTAL: 3 g
  ALT: 37.2 IU/L
  AST: 66 IU/L
  BUN: 16.8 mg/dL
  CRE: 0.3 mg/dL
  Ca: 11.1 mg/dL
  Cl: 108 meq/L
  DBIL: 0.014 mg/dL
  GLC: 198.8 mg/dL
  IP: 6.8 mg/dL
  K: 3.7 meq/L
  LDH: 63.4 IU/L
  Na: 146.4 meq/L
  PL: 160.2 mg/dL
  RALB: 2.9 g/dL
  TBIL: 0.028 mg/dL
  TC: 79.4 mg/dL
  TG: 125.2 mg/dL
  TP: 6.2 g/dL
  gamma-GTP: 1.2 IU/L
[5]
  TERMINAL_BW: 214.1 g
  Bas: 0%
  Eos: 0.8%
  Fbg: 270 mg/dL
  Ht: 39.8%
  Lym: 72.2%
  MCHC: 32.8%
  MCV: 64.2 fL
  Mono: 2.8%
  Neu: 23.2%
  PT: 13.8 s
  Plat: 118.7 x10_4/uL
  RBC: 621.2 x10_4/ul
  Ret: 8.5%
  KIDNEY_L: 0.9 g
  KIDNEY_R: 1 g
  KIDNEY_TOTAL: 1.9 g
  ALT: 48.6 IU/L
  AST: 68.2 IU/L
  CRE: 0.2 mg/dL
  Ca: 11.1 mg/dL
  DBIL: 0.02 mg/dL
  GLC: 178 mg/dL
  IP: 7.4 mg/dL
  K: 4 meq/L
  LDH: 78.4 IU/L
  Na: 143.8 meq/L
  PL: 161.2 mg/dL
  RALB: 2.6 g/dL
  TBIL: 0.026 mg/dL
  TC: 86.4 mg/dL
  TG: 128.8 mg/dL
  TP: 5.5 g/dL
  gamma-GTP: 1.2 IU/L
[6]
  TERMINAL_BW: 255.5 g
  Bas: 0%
  Eos: 1%
  Fbg: 295 mg/dL
  Ht: 41.2%
  Lym: 77.4%
  MCHC: 33.2%
  MCV: 65.1 fL
  Mono: 2.6%
  Neu: 17.8%
  PT: 14.2 s
  Plat: 132.9 x10_4/uL
  RBC: 632 x10_4/ul
  Ret: 7.5%
  WBC: 77.3 x10_2/uL
  KIDNEY_L: 1.1 g
  KIDNEY_R: 1.1 g
  KIDNEY_TOTAL: 2.2 g
  ALT: 43.2 IU/L
  AST: 68.6 IU/L
  BUN: 15.4 mg/dL
  CRE: 0.2 mg/dL
  Ca: 11.2 mg/dL
  DBIL: 0.014 mg/dL
  GLC: 192.4 mg/dL
  IP: 8.3 mg/dL
  K: 4 meq/L
  LDH: 83.4 IU/L
  Na: 143.6 meq/L
  PL: 153.2 mg/dL
  RALB: 2.8 g/dL
  TBIL: 0.02 mg/dL
  TC: 81.2 mg/dL
  TG: 109.2 mg/dL
  TP: 5.8 g/dL
  gamma-GTP: 1 IU/L
[7]
  TERMINAL_BW: 315.7 g
  Bas: 0.4%
  Eos: 0.6%
  Fbg: 311.2 mg/dL
  Ht: 44.4%
  Lym: 80.2%
  MCHC: 32.9%
  MCV: 63.6 fL
  Mono: 2.4%
  PT: 13.8 s
  Plat: 139.6 x10_4/uL
  RBC: 698.8 x10_4/ul
  Ret: 5%
  WBC: 116 x10_2/uL
  KIDNEY_L: 1.3 g
  KIDNEY_R: 1.3 g
  KIDNEY_TOTAL: 2.6 g
  ALT: 45 IU/L
  AST: 70.4 IU/L
  BUN: 16.2 mg/dL
  CRE: 0.2 mg/dL
  Ca: 10.9 mg/dL
  Cl: 105.8 meq/L
  DBIL: 0.016 mg/dL
  GLC: 184.8 mg/dL
  IP: 7 mg/dL
  K: 4.2 meq/L
  LDH: 99.2 IU/L
  Na: 144.6 meq/L
  PL: 171.8 mg/dL
  RALB: 2.8 g/dL
  TBIL: 0.018 mg/dL
  TC: 81.8 mg/dL
  TG: 169.6 mg/dL
  TP: 6 g/dL
  gamma-GTP: 1.2 IU/L
[8]
  TERMINAL_BW: 415.5 g
  Bas: 0.2%
  Eos: 1.2%
  Fbg: 313.4 mg/dL
  Ht: 46.4%
  Lym: 77.4%
  MCHC: 33.9%
  MCV: 57.8 fL
  Mono: 2.2%
  Neu: 18.4%
  PT: 14 s
  Plat: 111.5 x10_4/uL
  RBC: 803.2 x10_4/ul
  Ret: 2.5%
  KIDNEY_L: 1.4 g
  KIDNEY_R: 1.4 g
  KIDNEY_TOTAL: 2.8 g
  ALT: 40.8 IU/L
  AST: 70.4 IU/L
  BUN: 17.6 mg/dL
  CRE: 0.2 mg/dL
  Ca: 11.1 mg/dL
  Cl: 108.4 meq/L
  DBIL: 0.016 mg/dL
  GLC: 202.8 mg/dL
  IP: 6.6 mg/dL
  K: 3.8 meq/L
  LDH: 65 IU/L
  Na: 146.6 meq/L
  PL: 161.8 mg/dL
  RALB: 2.9 g/dL
  TBIL: 0.016 mg/dL
  TC: 79.2 mg/dL
  TG: 147.4 mg/dL
  TP: 6.5 g/dL
  gamma-GTP: 1 IU/L
240 mg/kg, 72 h, dose level Middle, time 3 day
  TERMINAL_BW: 216.9 g
